pIC50: −log10 of the molar value. Calls of active or inactive are those of the source. No cut-off for these calls is given here.
Key:
[1] = tested on: MDA-MB-231; test: Induction of apoptosis in human MDA-MB-231 cells assessed as early apoptotic cells at 0.2 uM after 48 hrs by Annexin-V/FITC/PI staining based flow cytometry (reference value: 0.44 %); format: functional
[2] = tested on: MDA-MB-231; test: Increase in p53 level in human MDA-MB-231 cells at 0.2 to 0.8 uM after 48 hrs by Western blot analysis; format: functional, cell-based
[3] = tested on: MDA-MB-231; test: Induction of apoptosis in human MDA-MB-231 cells assessed as late apoptotic cells at 0.8 uM after 48 hrs by Annexin-V/FITC/PI staining based flow cytometry (reference value: 1.50 %); format: functional
[4] = tested on: MDA-MB-231; test: Synergistic induction of apoptosis in human MDA-MB-231 cells assessed as viable cells at 0.2 uM after 48 hrs in presence of DMXAA by Annexin-V/FITC/PI staining based flow cytometry (reference value: 99.95 %); format: functional; settings: MDA-MB-231, 48 h, read-out: Activity
[5] = tested on: MDA-MB-231; test: Synergistic cell cycle arrest in human MDA-MB-231 cells assessed as accumulation at G2/M phase at 0.2 to 0.8 uM after 48 hrs in presence of DMXAA by propidium iodide staining based flow cytometric method; format: functional
[6] = tested on: MDA-MB-231; test: Induction of apoptosis in human MDA-MB-231 cells assessed as viable cells at 0.4 uM after 48 hrs by Annexin-V/FITC/PI staining based flow cytometry (reference value: 96.51 %); format: functional; settings: MDA-MB-231, 48 h, read-out: Activity
[7] = tested on: MDA-MB-231; test: Induction of apoptosis in human MDA-MB-231 cells assessed as necrotic cells at 0.8 uM after 48 hrs by Annexin-V/FITC/PI staining based flow cytometry (reference value: 1.55 %); format: functional
[8] = tested on: MDA-MB-231; test: Induction of apoptosis in human MDA-MB-231 cells after 48 hrs by Annexin-V/FITC/PI staining based flow cytometry; format: functional, cell-based
[9] = tested on: MDA-MB-231; test: Synergistic induction of apoptosis in human MDA-MB-231 cells assessed as decrease in caspase-9 level at 0.1 to 0.5 uM after 48 hrs in presence of DMXAA by Western blot analysis; format: functional, cell-based
[10] = tested on: MDA-MB-231; test: Cell cycle arrest in human MDA-MB-231 cells assessed as increase in accumulation at G2/M phase at 0.8 uM after 48 hrs by propidium iodide staining based flow cytometric method relative to control; format: functional
[11] = tested on: MDA-MB-231; test: Synergistic antiproliferative activity against human MDA-MB-231 cells at compound to DMXAA mol ratio of 1:1 after 48 hrs by CCK8 assay relative to compound alone; format: functional
[12] = tested on: MDA-MB-231; test: Synergistic induction of apoptosis in human MDA-MB-231 cells assessed as increase in cleaved PARP level at 0.1 to 0.5 uM after 48 hrs in presence of DMXAA by Western blot analysis; format: functional, cell-based
[13] = tested on: COLO 320; test: Synergistic antiproliferative activity against human COLO320 cells at compound to DMXAA mol ratio of 1:1 after 48 hrs by CCK8 assay; format: functional, cell-based; settings: COLO 320, 48 h
[14] = tested on: MDA-MB-231; test: Synergistic decrease in MDM2 level in human MDA-MB-231 cells at 0.1 to 0.5 uM after 48 hrs in presence of DMXAA by Western blot analysis; format: functional, cell-based
[15] = tested on: MDA-MB-231; test: Induction of apoptosis in human MDA-MB-231 cells assessed as necrotic cells at 0.4 uM after 48 hrs by Annexin-V/FITC/PI staining based flow cytometry (reference value: 1.55 %); format: functional
[16] = tested on: MDA-MB-231; test: Induction of apoptosis in human MDA-MB-231 cells assessed as increase in cleaved caspase-3 expression at 0.2 to 0.8 uM after 48 hrs by Western blot analysis; format: functional, cell-based
[17] = tested on: MDA-MB-231; test: Synergistic induction of apoptosis in human MDA-MB-231 cells assessed as late apoptotic cells at 0.8 uM after 48 hrs in presence of DMXAA by Annexin-V/FITC/PI staining based flow cytometry (reference value: 0.00 %); format: functional
[18] = tested on: L02; test: Cytotoxicity against human HL-7702 cells after 48 hrs by CCK8 assay; format: cell-based; settings: L02, 48 h
[19] = tested on: MDA-MB-231; test: Decrease in MDM2 level in human MDA-MB-231 cells at 0.2 to 0.8 uM after 48 hrs by Western blot analysis; format: functional, cell-based
[20] = tested on: MDA-MB-231; test: Synergistic antiproliferative activity against human MDA-MB-231 cells at compound to DMXAA mol ratio of 1:1 after 48 hrs by CCK8 assay; format: functional, cell-based; settings: MDA-MB-231, 48 h
[21] = tested on: MDA-MB-231; test: Synergistic induction of apoptosis in human MDA-MB-231 cells assessed as necrotic cells at 0.2 uM after 48 hrs in presence of DMXAA by Annexin-V/FITC/PI staining based flow cytometry (reference value: 0.00 %); format: functional
[22] = tested on: MDA-MB-231; test: Induction of apoptosis in human MDA-MB-231 cells assessed as necrotic cells at 0.2 uM after 48 hrs by Annexin-V/FITC/PI staining based flow cytometry (reference value: 1.55 %); format: functional
[23] = tested on: MCF7; test: Synergistic antiproliferative activity against human MCF7 cells at compound to DMXAA mol ratio of 1:1 after 48 hrs by CCK8 assay; format: functional, cell-based; settings: MCF7, 48 h
[24] = tested on: MDA-MB-231; test: Induction of apoptosis in human MDA-MB-231 cells assessed as early apoptotic cells at 0.4 uM after 48 hrs by Annexin-V/FITC/PI staining based flow cytometry (reference value: 0.44 %); format: functional
[25] = tested on: MDA-MB-231; test: Synergistic cell cycle arrest in human MDA-MB-231 cells assessed as accumulation at S phase 0.2 to 0.8 uM after 48 hrs in presence of DMXAA by propidium iodide staining based flow cytometric method relative to control; format: functional
[26] = tested on: MDA-MB-231; test: Induction of apoptosis in human MDA-MB-231 cells assessed as increase in cleaved PARP expression at 0.2 to 0.8 uM after 48 hrs by Western blot analysis; format: functional, cell-based
[27] = tested on: MDA-MB-231; test: Synergistic induction of apoptosis in human MDA-MB-231 cells assessed as early apoptotic cells at 0.2 uM after 48 hrs in presence of DMXAA by Annexin-V/FITC/PI staining based flow cytometry (reference value: 0.05 %); format: functional
[28] = tested on: MDA-MB-231; test: Synergistic induction of apoptosis in human MDA-MB-231 cells assessed as necrotic cells at 0.4 uM after 48 hrs in presence of DMXAA by Annexin-V/FITC/PI staining based flow cytometry (reference value: 0.00 %); format: functional
[29] = tested on: MDA-MB-231; test: Synergistic induction of apoptosis in human MDA-MB-231 cells assessed as viable cells at 0.4 uM after 48 hrs in presence of DMXAA by Annexin-V/FITC/PI staining based flow cytometry (reference value: 99.95 %); format: functional; settings: MDA-MB-231, 48 h, read-out: Activity
[30] = tested on: MDA-MB-231; test: Synergistic induction of apoptosis in human MDA-MB-231 cells assessed as late apoptotic cells at 0.4 uM after 48 hrs in presence of DMXAA by Annexin-V/FITC/PI staining based flow cytometry (reference value: 0.00 %); format: functional
[31] = tested on: MDA-MB-231; test: Synergistic induction of apoptosis in human MDA-MB-231 cells assessed as increase in cleaved caspase-3 level at 0.1 to 0.5 uM after 48 hrs in presence of DMXAA by Western blot analysis; format: functional, cell-based
[32] = tested on: K562; test: Antiproliferative activity against human K562 cells after 48 hrs by CCK8 assay; format: functional, cell-based; settings: K562, 48 h

In the case of `O=c1c2cc(Br)ccc2oc2cc(O)cc(O)c12`, the Activity [1] was 0.98%, the Activity [2] was “Active” and the Activity [3] was 13.71%. For the same compound, the viability at 0.2 µM [4] was 48.6%, the Activity [5] was “inactive” and the viability at 0.4 µM [6] was 47.9%. The Activity [7] was 45.02%, the Activity [8] was “Dose-dependent effect” and the Activity [9] was “Active”. For the same compound, the Activity [10] was 21.8%, the “fold change (FC)” value [11] was 10 and the Activity [12] was “Active”. The pIC50 [13] was 5.29, the Activity [14] was “Active” and the Activity [15] was 38.81%. The Activity [16] was “Active”, the Activity [17] was 34.65% and the pIC50 [18] was 3.25. The Activity [19] was “Active”, the pIC50 [20] was 7.38 and the Activity [21] was 38.43%. For the same compound, the Activity [22] was 14.44%, the pIC50 [23] was 5.62 and the Activity [24] was 1.74%. The Activity [25] was 26.5%, the Activity [26] was “Active” and the Activity [27] was 2.79%. It also gave an Activity [28] of 22.27%, a viability at 0.4 µM [29] of 46.3% and an Activity [30] of 26.7%. For the same compound, the Activity [31] was “Active” and the pIC50 [32] was 4.87.

Source: ChEMBL document CHEMBL4033623, “Synthesis of xanthone derivatives and studies on the inhibition against cancer cells growth and synergistic combinations of them” (Eur J Med Chem, 2017)
